Values of other authors, collected in patent publication US20020177547A1, “Pharmaceutical compositions for treating or preventing cancer” (priority 2001, published 2002).

Tests used:
[1] = system: peripheral blood lymphocytes (PBL) of melanoma patients; conditions: repeated in vitro stimulation of PBL

Sequence | recognition by TILs (hgp100 TILs) | induction of melanoma-reactive CTLs [1]
ITDQVPFSV [peptide 2] | immunodominant | –
KTWGQYWQV [peptide 1] | immunodominant | –
VLYRYGSFSV (listed as Homo sapiens) [Peptide 3] | – | able to induce melanoma-reactive CTLs
